Measured values: patent US20240207241A1, “Method for Promoting Functional Cure of AIDS by Reducing HIV Reservoir with Lenalidomide” (priority 2022, published 2024)

Assays:
[1] = Clinical cohort: inflammatory markers and cytokines in peripheral blood and CSF of HIV patients on lenalidomide; assay type: in vivo, human
Protocol: HIV patients with CM after antiretroviral therapy (ART) were recruited. […] Lenalidomide (25 mg) was orally administered at days 1 to 21 in a 28-day cycle, and ART was continued for 48 weeks. The participants were followed up at 7 points (base line 0w, 4w, 8w, 12w, 24w, 36w, and 48w). Inflammatory cytokines in CSF and peripheral blood were detected at each follow-up point, and PBMCs were extracted from the patients and detected for indicators of HIV reservoir.

HIV reservoir = assay: Clinical cohort: indicators of HIV reservoir (CA HIV RNA) in PBMCs extracted from patients; assay type: in vivo, human
Protocol: HIV patients with CM after antiretroviral therapy (ART) were recruited. These participants had central damage after receiving standard anti-fungal therapy, elevated cerebrospinal fluid (CSF) protein level, age of 18 years or more, and plasma HIV RNA of <50 copies/ml and CD4 T cell count of >100 cells/mm3 after receiving ART for at least 48 weeks. Lenalidomide (25 mg) was orally administered at days 1 to 21 in a 28-day cycle, and ART was continued for 48 weeks. The participants were followed up at 7 points (base line 0w, 4w, 8w, 12w, 24w, 36w, and 48w). Inflammatory cytokines in CSF and peripheral blood were detected at each follow-up point, and PBMCs were extracted from the patients and detected for indicators of HIV reservoir. […] For CA HIV-RNA, lenalidomide has a great influence. […] The subjects Nos. 110 and 113 have a decline that exceeds 2 log order of magnitude.

U1 cells = assay: CCK8 survival rate of U1 cells; assay type: cell-based; details: lenalidomide 0.5, 1, 2, 5, 10, and 20 μmol/L, 24 hrs
Protocol: CCK8 was used to evaluate the safety of lenalidomide when U1 cells were treated with it in vitro. After U1 cells were treated with various concentrations of lenalidomide (0.5, 1, 2, 5, 10, and 20 μmol/L) for 24 hrs, the survival rate of U1 cells was detected by CCK8 kit. […] There is no significant difference between the control group and various concentration groups and between the various concentration groups. Lenalidomide has a high safety when acting on latent cell lines in vitro.

latent HIV cell line U1 = assay: P24 ELISA in supernatant of U1 cells stimulated with latent activator; assay type: cell-based; details: pretreated 1, 2, and 5 μmol/L lenalidomide 24 hrs
Protocol: U1 cells were pretreated with various concentrations of lenalidomide (1, 2, and 5 μmol/L) for 24 hrs, and then the U1 cells pre-treated with lenalidomide were stimulated with a latent activator (TNF-a, PMA, or LPS). The U1 cells in the negative control group were cultured alone, and the U1 cells in the positive control group were not pretreated with lenalidomide. The activation of P24 protein in the supernatant of latent cells U1 was detected by ELISA. […] Compared with the positive control group, the P24 contents decline in the supernatants of the three experimental groups pretreated with 1, 2, and 5 μmol/L lenalidomide, and the difference is statistically significant (P=0.0029, 0.0019, and 0.0017, B in FIG. 3). The difference between various concentrations of lenalidomide groups is not obvious. (2) In the experiment where TNF-α of 20 μg/ml is used as the latent activator, similar results are observed. […] (3) The study of endotoxin (LPS, 10 μg/ml) as a latent activator is rare.

[2] = tested on: HIV-1 latent cell line U1; assay: Viral mRNA expression in U1 cells activated with LPS; assay type: cell-based; details: lenalidomide 2 μmol/L pretreatment 24 hrs
Protocol: After the HIV-1 latent cell line is activated by activator, the expression of viral mRNA in the cells is increased, causing the production of virions. […] The U1 cells were divided into three groups. The negative control group was added with the same amount of culture medium. In the positive control group, cells were pretreated with the culture medium, and LPS was added as an activator after 24 hrs. In the experimental group, lenalidomide (2 μmol/L) was added to pretreat the cells for 24 hrs and then LPS was added to activate the cells. […] (2) The expression levels of multi-spliced RNA, single-spliced RNA and non-spliced RNA in U1 were also detected.

[3] = tested on: HIV-1 primary cell CD8-PBMCs; assay: Virus reactivation in HIV-1 primary cells CD8-PBMCs (intracellular P24 by flow cytometry, CA HIV RNA by RT-PCR); assay type: cell-based, human
Protocol: Lenalidomide is confirmed to inhibit the transcription of virus in HIV-1 latent cell line, and whether it has the same effect in HIV primary cells is unknown. CD8-PBMCs were divided into an experimental group and a positive control group and treated with or without lenalidomide for 5 days. Both groups were supplemented with LPS irregularly. In the negative control group, the same amount of DMSO was added for control culture throughout the whole process. After 5 days, the cells were broken, and the difference in expression of intracellular P24 protein in CD8-PBMCs was detected by flow cytometry. As shown in A in FIG. 5, in the positive control group, the intracellular HIV-1 core P24 in CD8-PBMCs reaches 9.76% after the continuous action of activator. […] The differences in the expression of CA HIV RNA in the five samples were also detected.

[4] = tested on: PBMCs derived from HIV-1 patients; assay: Cytokines in supernatant of PBMCs from HIV-1 patients (cytometric bead array); assay type: cell-based, human; details: PBMCs co-cultured with lenalidomide 24 hrs vs control group
Protocol: The in-vitro regulatory effect of lenalidomide was verified as follows. PBMCs were separated from peripheral blood donated by HIV-1 patients, and divided into a control group and an experimental group. The control group was cultured alone, and the experimental group was co-cultured with lenalidomide. After 24 hrs, the supernatant was taken for cytokine detection. The level of cytokines in the supernatant was measured by a cytometric bead array kit.

J-lat10.6 cells = assay: GFP activation of J-lat10.6 cells by supernatant of PBMCs treated with lenalidomide; assay type: cell-based; details: supernatant added with lenalidomide; control supernatant activates GFP by 51.7%
Source text: (§1) Lenalidomide has a powerful immunomodulatory effect, and can inhibit the release of pro-inflammatory cytokines in PBMCs derived from HIV patients in vitro and promote the secretion of anti-inflammatory cytokine IL-10. However, whether this degree of immunomodulation can inhibit HIV replication was not confirmed. The latent cell lines J-lat10.6 and C11 cells were used for the experiment. The supernatants of the experimental group and control group were used to stimulate J-lat10.6 and C11 cells, respectively. […] Lenalidomide can regulate the release of inflammatory cytokines in PBMCs from HIV-1 patients in vitro, and this bypass pathway can inhibit virus reactivation in HIV-1 latent cell lines.

C11 cells = assay: GFP activation of C11 cells by supernatant of PBMCs treated with lenalidomide; assay type: cell-based; details: supernatant of lenalidomide group; control group 23.17%
Source text: as §1

[5] = peripheral blood, after lenalidomide treatment

Question: What does the source list for `Nc1cccc2c1CN(C1CCC(=O)NC1=O)C2=O` (stereo not drawn) [lenalidomide]?
Answer: IL-6 level in CSF ([1]; CSF): significantly reduces; TNF-a level in CSF ([1]; CSF): significantly reduces; IL-6 [1, 5]: decrease significantly; TNF-a [1, 5]: decrease significantly; CRP of HIV subjects ([1]; peripheral blood, lenalidomide 25 mg oral days 1 to 21 of 28-day cycle, after 7 weeks): decrease; D-dimer of HIV subjects ([1]; peripheral blood, lenalidomide 25 mg oral days 1 to 21 of 28-day cycle, after 12 weeks): decrease; CA HIV-RNA (HIV reservoir; 13 patients, from the 24th week, more obvious at the 48th week): declines obviously; decline of CA RNA (HIV reservoir; subjects Nos. 110 and 113): exceeds 2 log order of magnitude; survival rate of U1 cells (U1 cells): less affected; P24 content in supernatant vs positive control group (latent HIV cell line U1; LPS 10 μg/ml): significantly lower; P24 content in supernatant vs positive control group (latent HIV cell line U1; PMA 20 nmol/L 24 hrs): decline; P24 content in supernatant vs positive control group (latent HIV cell line U1; TNF-α 20 μg/ml): significantly lower; expression level of multi-spliced RNA ([2]; then LPS): significantly inhibits; expression level of non-spliced RNA ([2]; then LPS): significantly inhibits; expression level of single-spliced RNA ([2]; then LPS): significantly inhibits; mRNA level of Gag ([2]; then LPS 10 μg/ml 24 hrs): basically inhibited; mRNA level of Rev protein ([2]; then LPS 10 μg/ml 24 hrs): basically inhibited; expression of intracellular antigen P24 ([3]; 5 days with lenalidomide and LPS, positive control 9.76%, DMSO control 0.73%): 4.15%; decrease of average amount of CA HIV-1 RNA vs positive control group ([3]; five samples, RT-PCR): 0.49 time; IL-6 in supernatant [4]: decrease significantly; IL-10 in supernatant [4]: increases significantly; TNF-α in supernatant [4]: decrease significantly; J-lat10.6 GFP (J-lat10.6 cells): 24.21%; GFP activation of C11 cells (C11 cells): 8.09%
